Measurements reported in patent US5250683A, “Certain substituted taxanes and pharmaceutical compositions containing them” (Florida State University, priority 1992, dated 1993).

Test system: tubulin
Assay: Tubulin binding assay (Tubulin Assay), method of Parness et al.
Settings: compared to taxol and taxotere

SMILES | Tubulin Assay Init. Peak | Tubulin Assay Rel. Rate
CC(=O)O[C@H]1C(=O)[C@@]2(C)[C@H]([C@H](OC(=O)c3ccccc3)[C@]3(O)C[C@H](OC(=O)[C@H](O)[C@@H](NC(=O)c4ccccc4)c4cccc5ccccc45)C(C)=C1C3(C)C)[C@]1(OC(C)=O)CO[C@@H]1C[C@@H]2O [Example 1, 3'-desphenyl-3'-(1-naphthyl) taxol] | 0 | 0
CC(=O)O[C@H]1C(=O)[C@@]2(C)[C@H]([C@H](OC(=O)c3ccccc3)[C@]3(O)C[C@H](OC(=O)[C@H](O)[C@@H](NC(=O)c4ccccc4)c4ccc5ccccc5c4)C(C)=C1C3(C)C)[C@]1(OC(C)=O)CO[C@@H]1C[C@@H]2O [Example 2, 3'-desphenyl-3'-(2-naphthyl) taxol] | 0 | 0
COc1ccc([C@H](NC(=O)c2ccccc2)[C@@H](O)C(=O)O[C@H]2C[C@@]3(O)[C@@H](OC(=O)c4ccccc4)[C@@H]4[C@]5(OC(C)=O)CO[C@@H]5C[C@H](O)[C@@]4(C)C(=O)[C@H](OC(C)=O)C(=C2C)C3(C)C)cc1 [Example 3, 3'-desphenyl-3'-(4-methoxyphenyl) taxol] | 59 | 87
CC(=O)O[C@H]1C(=O)[C@@]2(C)[C@H]([C@H](OC(=O)c3ccccc3)[C@]3(O)C[C@H](OC(=O)[C@H](O)[C@@H](NC(=O)c4ccccc4)c4ccc(Cl)cc4)C(C)=C1C3(C)C)[C@]1(OC(C)=O)CO[C@@H]1C[C@@H]2O [Example 4, 3'-desphenyl-3'-(4-chlorophenyl) taxol] | 94 | 97
CC(=O)O[C@H]1C(=O)[C@@]2(C)[C@H]([C@H](OC(=O)c3ccccc3)[C@]3(O)C[C@H](OC(=O)[C@H](O)[C@@H](NC(=O)c4ccccc4)c4ccc(Br)cc4)C(C)=C1C3(C)C)[C@]1(OC(C)=O)CO[C@@H]1C[C@@H]2O [Example 5, 3'-desphenyl-3'-(4-bromophenyl) taxol] | 5 | 74
CC(=O)O[C@H]1C(=O)[C@@]2(C)[C@H]([C@H](OC(=O)c3ccccc3)[C@]3(O)C[C@H](OC(=O)[C@H](O)[C@@H](NC(=O)c4ccccc4)c4ccc5c(c4)OCO5)C(C)=C1C3(C)C)[C@]1(OC(C)=O)CO[C@@H]1C[C@@H]2O [Example 6, 3'-desphenyl-3'-(3,4-methylenedioxyphenyl) taxol] | 53 | 85
COc1ccc([C@H](NC(=O)c2ccccc2)[C@@H](O)C(=O)O[C@H]2C[C@@]3(O)[C@@H](OC(=O)c4ccccc4)[C@@H]4[C@]5(OC(C)=O)CO[C@@H]5C[C@H](O)[C@@]4(C)C(=O)[C@H](OC(C)=O)C(=C2C)C3(C)C)cc1OC [Example 7, 3'-desphenyl-3'-(3,4-dimethoxyphenyl) taxol] | 11 | 26
CC(=O)O[C@H]1C(=O)[C@@]2(C)[C@H]([C@H](OC(=O)c3ccccc3)[C@]3(O)C[C@H](OC(=O)[C@H](O)[C@@H](NC(=O)c4ccccc4)c4ccc([N+](=O)[O-])cc4)C(C)=C1C3(C)C)[C@]1(OC(C)=O)CO[C@@H]1C[C@@H]2O [Example 8, 3'-desphenyl-3'-(4-nitrophenyl) taxol] | 114 | 105
CC(=O)O[C@H]1C(=O)[C@@]2(C)[C@H]([C@H](OC(=O)c3ccccc3)[C@]3(O)C[C@H](OC(=O)[C@H](O)[C@@H](NC(=O)c4ccccc4)c4ccc(F)cc4)C(C)=C1C3(C)C)[C@]1(OC(C)=O)CO[C@@H]1C[C@@H]2O [Example 9, 3'-desphenyl-3'-(4-fluorophenyl) taxol] | 100 | 
CC(=O)O[C@H]1C(=O)[C@@]2(C)[C@H]([C@H](OC(=O)c3ccccc3)[C@]3(O)C[C@H](OC(=O)[C@H](O)[C@@H](NC(=O)c4ccc(Cl)cc4)c4ccccc4)C(C)=C1C3(C)C)[C@]1(OC(C)=O)CO[C@@H]1C[C@@H]2O [Example 10, N-debenzoyl-N-(4-chlorobenzoyl) taxol] | 75 | 90
CC(=O)O[C@H]1C(=O)[C@@]2(C)[C@H]([C@H](OC(=O)c3ccccc3)[C@]3(O)C[C@H](OC(=O)[C@H](O)[C@@H](NC(=O)c4ccc(Br)cc4)c4ccccc4)C(C)=C1C3(C)C)[C@]1(OC(C)=O)CO[C@@H]1C[C@@H]2O [Example 11, N-debenzoyl-N-(4-bromobenzoyl) taxol] | 67 | 88
CC(=O)O[C@H]1C(=O)[C@@]2(C)[C@H]([C@H](OC(=O)c3ccccc3)[C@]3(O)C[C@H](OC(=O)[C@H](O)[C@@H](NC(=O)c4ccc(C)cc4)c4ccccc4)C(C)=C1C3(C)C)[C@]1(OC(C)=O)CO[C@@H]1C[C@@H]2O [Example 12, N-debenzoyl-N-(4-methylbenzoyl) taxol] | 107 | 110
CC(=O)O[C@H]1C(=O)[C@@]2(C)[C@H]([C@H](OC(=O)c3ccccc3)[C@]3(O)C[C@H](OC(=O)[C@H](O)[C@@H](NC(=O)c4ccc(C(C)(C)C)cc4)c4ccccc4)C(C)=C1C3(C)C)[C@]1(OC(C)=O)CO[C@@H]1C[C@@H]2O [Example 13, N-debenzoyl-N-(4-t-butylbenzoyl) taxol] | 67 | 85
COc1ccc(C(=O)N[C@@H](c2ccccc2)[C@@H](O)C(=O)O[C@H]2C[C@@]3(O)[C@@H](OC(=O)c4ccccc4)[C@@H]4[C@]5(OC(C)=O)CO[C@@H]5C[C@H](O)[C@@]4(C)C(=O)[C@H](OC(C)=O)C(=C2C)C3(C)C)cc1 [Example 14, N-debenzoyl-N-(4-methoxybenzoyl) taxol] | 95 | 99
CC(=O)O[C@H]1C(=O)[C@@]2(C)[C@H]([C@H](OC(=O)c3ccccc3)[C@]3(O)C[C@H](OC(=O)[C@H](O)[C@@H](NC(=O)c4ccc(F)cc4)c4ccc(F)cc4)C(C)=C1C3(C)C)[C@]1(OC(C)=O)CO[C@@H]1C[C@@H]2O [Example 15, N-debenzoyl-N-(4-fluorobenzoyl)-3'-desphenyl-3'-(4-fluorophenyl) taxol] | 89 | 98
CC(=O)O[C@H]1C(=O)[C@@]2(C)[C@H]([C@H](OC(=O)c3ccccc3)[C@]3(O)C[C@H](OC(=O)[C@H](O)[C@@H](NC(=O)c4ccc(F)cc4)c4ccccc4)C(C)=C1C3(C)C)[C@]1(OC(C)=O)CO[C@@H]1C[C@@H]2O [Example 16, N-debenzoyl-N-(4-fluorobenzoyl) taxol] | 66 | 90
CC(=O)O[C@H]1C(=O)[C@@]2(C)[C@H]([C@H](OC(=O)c3ccccc3)[C@]3(O)C[C@H](OC(=O)[C@H](O)[C@@H](NC(=O)c4ccc(C)cc4)c4ccc(Cl)cc4)C(C)=C1C3(C)C)[C@]1(OC(C)=O)CO[C@@H]1C[C@@H]2O [Example 17, N-debenzoyl-N-(4-methylbenzoyl)-3'-desphenyl-3'-(4-chlorophenyl) taxol] | 101 | 98
CC(=O)O[C@H]1C(=O)[C@@]2(C)[C@H]([C@H](OC(=O)c3ccccc3)[C@]3(O)C[C@H](OC(=O)[C@H](O)[C@@H](NC(=O)c4ccc(Cl)cc4)c4ccc(F)cc4)C(C)=C1C3(C)C)[C@]1(OC(C)=O)CO[C@@H]1C[C@@H]2O [Example 18, N-debenzoyl-N-(4-chlorobenzoyl)-3'-desphenyl-3'-(4-fluorophenyl) taxol] | 109 | 92
CC(=O)O[C@H]1C(=O)[C@@]2(C)[C@H]([C@H](OC(=O)c3ccccc3)[C@]3(O)C[C@H](OC(=O)[C@H](O)[C@@H](NC(=O)c4ccc(Br)cc4)c4ccc(F)cc4)C(C)=C1C3(C)C)[C@]1(OC(C)=O)CO[C@@H]1C[C@@H]2O [Example 19, N-debenzoyl-N-(4-bromobenzoyl)-3'-desphenyl-3'-(4-fluorophenyl) taxol] | 88 | 100
CC(=O)O[C@H]1C(=O)[C@@]2(C)[C@H]([C@H](OC(=O)c3ccccc3)[C@]3(O)C[C@H](OC(=O)[C@H](O)[C@@H](NC(=O)c4ccc(C)cc4)c4ccc(F)cc4)C(C)=C1C3(C)C)[C@]1(OC(C)=O)CO[C@@H]1C[C@@H]2O [Example 20, N-debenzoyl-N-(4-methylbenzoyl)-3'-desphenyl-3'-(4-fluorophenyl) taxol] | 85 | 98
COc1ccc([C@H](NC(=O)c2ccc(F)cc2)[C@@H](O)C(=O)O[C@H]2C[C@@]3(O)[C@@H](OC(=O)c4ccccc4)[C@@H]4[C@]5(OC(C)=O)CO[C@@H]5C[C@H](O)[C@@]4(C)C(=O)[C@H](OC(C)=O)C(=C2C)C3(C)C)cc1 [Example 21, N-debenzoyl-N-(4-fluorobenzoyl)-3'-desphenyl-3'-(4-methoxyphenyl) taxol] | 45 | 81
COc1ccc([C@H](NC(=O)c2ccc(C)cc2)[C@@H](O)C(=O)O[C@H]2C[C@@]3(O)[C@@H](OC(=O)c4ccccc4)[C@@H]4[C@]5(OC(C)=O)CO[C@@H]5C[C@H](O)[C@@]4(C)C(=O)[C@H](OC(C)=O)C(=C2C)C3(C)C)cc1 [Example 22, N-debenzoyl-N-(4-methylbenzoyl)-3'-desphenyl-3'-(4-methoxyphenyl) taxol] | 77 | 96
CC(=O)O[C@H]1C(=O)[C@@]2(C)[C@H]([C@H](OC(=O)c3ccccc3)[C@]3(O)C[C@H](OC(=O)[C@H](O)[C@@H](NC(=O)c4ccc(F)cc4)c4ccc(Cl)cc4)C(C)=C1C3(C)C)[C@]1(OC(C)=O)CO[C@@H]1C[C@@H]2O [Example 23, N-debenzoyl-N-(4-fluorobenzoyl)-3'-desphenyl-3'-(4-chlorophenyl) taxol] | 63 | 88
CC(=O)O[C@H]1C(=O)[C@@]2(C)[C@H]([C@H](OC(=O)c3ccccc3)[C@]3(O)C[C@H](OC(=O)[C@H](O)[C@@H](NC(=O)c4ccc(Cl)cc4)c4ccc(Cl)cc4)C(C)=C1C3(C)C)[C@]1(OC(C)=O)CO[C@@H]1C[C@@H]2O [Example 24, N-debenzoyl-N-(4-chlorobenzoyl)-3'-desphenyl-3'-(4-chlorophenyl) taxol] | 35 | 60
